Data published in PubChem BioAssay (NCI).
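Each compound was tested at five concentrations against cells in 96-well plates for 48 hours. GI50 = concentration required for 50% inhibition of growth. The concentration for full growth arrest is given as TGI.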

Columns and labels:
Assay in all cases: NCI tumour cell line growth inhibition, 48 h
786-0 renal = system: 786-0 renal
CAKI-1 renal = system: CAKI-1 renal
COLO 205 colon = system: COLO 205 colon
HL-60(TB) leukemia = system: HL-60(TB) leukemia
MOLT-4 leukemia = system: MOLT-4 leukemia
OVCAR-3 ovarian = system: OVCAR-3 ovarian
SK-MEL-2 melanoma = system: SK-MEL-2 melanoma
SK-OV-3 ovarian = system: SK-OV-3 ovarian
UACC-257 melanoma = system: UACC-257 melanoma
A498 renal = system: A498 renal

Row | SMILES | TGI (786-0 renal) [µM] | TGI (CAKI-1 renal) [µM] | TGI (COLO 205 colon) [µM] | TGI (HL-60(TB) leukemia) [µM] | TGI (MOLT-4 leukemia) [µM] | TGI (OVCAR-3 ovarian) [µM] | TGI (SK-MEL-2 melanoma) [µM] | TGI (SK-OV-3 ovarian) [µM] | TGI (UACC-257 melanoma) [µM] | GI50 (786-0 renal) [µM] | GI50 (A498 renal) [µM] | TGI (A498 renal) [µM] | GI50 (COLO 205 colon) [µM] | GI50 (HL-60(TB) leukemia) [µM] | GI50 (MOLT-4 leukemia) [µM] | GI50 (OVCAR-3 ovarian) [µM] | GI50 (SK-MEL-2 melanoma) [µM] | GI50 (SK-OV-3 ovarian) [µM] | GI50 (UACC-257 melanoma) [µM] | GI50 (CAKI-1 renal) [µM]
1 | COc1c(C)cc(O)cc1C=O | > 100 | > 100 | > 100 | > 100 | > 100 | > 100 | > 100 | > 100 | > 100 |  |  |  |  |  |  |  |  |  |  | 
2 | CCN(CC)CCNc1ccc(C)c2sc3cc(Cl)ccc3c(=O)c12 | 3.1 |  | 3.35 | 3.71 | 3.28 | 3.23 | 3.72 | 4.88 | 3.42 | 1.66 | 1.89 | 4.79 | 1.62 | 1.81 | 1.55 | 1.73 | 1.88 | 1.77 | 1.92 | 
3 | Cn1cc(C2=C(c3ccccc3[N+](=O)[O-])C(=O)NC2=O)c2ccccc21 | > 25 | > 20.8 | 6.38 | 13.9 |  | > 21.8 | 9.55 | > 25 | 17.7 | 3.2 | 0.384 | 2.57 | 2.79 | 2.11 |  | 2.32 | 2.92 | 4.79 | 7.11 | 3.87
4 | COC(=O)C(=O)C(C(=O)C(=O)Nc1cccc(C(C)=O)c1)c1nc2ccc([N+](=O)[O-])cc2[nH]c1=O (stereo not drawn) | > 100 | > 100 | > 100 | > 100 | > 100 |  | > 100 | > 100 | > 100 |  |  | > 100 |  |  |  |  |  |  |  | 
5 | COc1cccc2ccc(C(=O)c3ccccc3)nc12 | > 100 | > 100 | > 100 |  | > 100 | > 100 | > 100 |  |  |  |  |  |  |  |  |  |  |  |  | 
6 | O=c1cc(-c2ccccc2)oc2ccc(OC/C(=N/O)c3ccccc3)cc12 | > 50 | 16.2 | 25.3 | > 50 | > 50 | 3.93 | > 50 | 16.2 | > 50 | 8.92 |  |  | 1.89 | 2.12 | 5.72 | 1.23 | 29.6 | 1.1 | 5.12 | 1.79
7 | NCCCNc1nc2ccccc2c2c(=O)c3cc(F)cc(F)c3sc12 | 3.12 | 4.18 | 4.62 | 4.2 |  | 3.19 | 7.04 |  | 4.18 | 1.49 | 1.38 | 2.93 | 1.92 | 2.08 |  | 1.72 | 2.67 |  | 1.88 | 1.86
8 | O=C(/C=C/c1ccco1)c1cc(F)c(Cl)cc1Cl | 55.4 | > 100 | 38.4 | > 100 |  | 60.4 | 34.6 | 80.1 | 50.5 | 22.3 | 18.7 | 39.2 | 18.6 | 30.8 |  | 21.4 | 18.1 | 24.5 | 24.6 | 32.7
9 | CC(C)(C)OC(=O)N[C@H]1CC(O)c2ccccc2N(CC(=O)O)C1=O (stereo partly drawn) | > 100 | > 100 | > 100 | > 100 | > 100 | > 100 | > 100 | > 100 | > 100 |  |  |  |  |  |  |  |  |  |  | 
10 | O=C(O)/C=C/C(=O)N1Cc2cc3ccccc3nc2C1 | > 100 | > 100 | > 100 | > 100 | > 100 | > 100 | > 100 | > 100 | > 100 |  |  |  |  |  |  |  |  |  |  | 
11 | N.N.NCCCCCN.O=C([O-])CCl.O=C([O-])CCl.O=C([O-])CCl.O=C([O-])CCl.[Pt+4].[Pt+4] | 24.4 | 7.55 | 8.45 | 11.2 |  | 49.2 | > 100 | 48.1 | 94.6 | 3.36 | 11 | 31.2 | 1.78 | 1.43 |  | 17 | 35.8 | 8.01 | 9.12 | 1.2
12 | O=S(=O)([O-])c1ccc(N=Cc2ccccc2[O-])cc1.O=S(=O)([O-])c1ccc(N=Cc2ccccc2[O-])cc1.[O]=[U+2]=[O] | > 100 |  | > 100 |  | > 100 | > 100 | > 100 | > 100 | > 100 | 42.7 | > 100 | > 100 | 84.8 |  | 64.1 | > 100 | > 100 | > 100 | > 100 | 
13 | CC(=O)Nc1ccc(/C=c2\sc3nnc(CCC(=O)Nc4ccccc4Cl)n3c2=O)cc1 | 48.9 | > 100 |  | 41 | 44.7 | 47.4 | 81.9 | > 100 | > 10 |  |  |  |  |  |  |  |  |  |  | 
14 | COC(=O)/C(=N\NC(N)=O)C(C(=O)C(=O)Nc1ccccc1OC)c1nc2ccc([N+](=O)[O-])cc2[nH]c1=O (stereo not drawn) | > 100 | > 100 |  | > 100 |  | > 100 | > 100 | > 100 | > 100 |  |  | > 100 |  |  |  |  |  |  |  | 
15 | CC[C@@H]1[C@@H](C)O[C@@](O)([C@@H](C)[C@H](O)[C@H](C)[C@H]2OC(=O)/C=C/C=C/[C@H](C)[C@@H]([C@@H](C)[C@@H](O)[C@H](C)[C@@]3(O)C[C@@H](O[C@H]4C[C@@H](O)[C@H](O)C(C)O4)[C@H](CC)[C@@H](C)O3)OC(=O)/C=C/C=C/[C@@H]2C)C[C@H]1O[C@@H]1C[C@@H](O)[C@H](O)C(C)O1 (stereo partly drawn) | 0.464 |  | 0.179 | 0.14 | 0.219 | 0.219 | 0.197 | 0.189 |  | 0.125 | 0.0596 | 0.131 | 0.0795 | 0.0708 | 0.0933 | 0.0791 | 0.0808 | 0.072 |  | 
16 | C=C1CC2CCCC12C=O (stereo not drawn) | > 10 | > 10 | > 10 | > 10 | > 10 | > 10 |  | > 10 | > 10 |  |  |  |  |  |  |  |  |  |  | 
17 | COc1ccc(OC(C)=O)c2c1CCC=CC2=O | 32.5 |  | 23 | 6.7 | 33.1 | 29.3 | 33.7 | 31.2 | 31.8 |  |  | 37.5 |  |  |  |  |  |  |  | 
